The test system of assay [1] is SE-activated NO signaling. As to the kind of experiment: Signal transduction assay: inhibition of SE-activated NO signaling. It counts as cell-based. As to the method:
(§1) Surface plasmon resonance (SPR) and signal transduction assays were performed as previously described (Holoshitz et al., 2012; supra; Ling et al., 2010. PLoS ONE 5: e11703; Ling et al., 2012 Arthritis Rheum.). In vitro assays for OC differentiation, using primary bone marrow cells (BMCs) isolated from femurs and tibias, or PBMCs isolated from healthy blood donors were performed as previously described (Holoshitz et al., 2012; supra).

Another assay concerns the target T1, recombinant CRT (Mus musculus, UniProt P14211).
T1 construct: made in house
T1 sequence (P14211 18-416): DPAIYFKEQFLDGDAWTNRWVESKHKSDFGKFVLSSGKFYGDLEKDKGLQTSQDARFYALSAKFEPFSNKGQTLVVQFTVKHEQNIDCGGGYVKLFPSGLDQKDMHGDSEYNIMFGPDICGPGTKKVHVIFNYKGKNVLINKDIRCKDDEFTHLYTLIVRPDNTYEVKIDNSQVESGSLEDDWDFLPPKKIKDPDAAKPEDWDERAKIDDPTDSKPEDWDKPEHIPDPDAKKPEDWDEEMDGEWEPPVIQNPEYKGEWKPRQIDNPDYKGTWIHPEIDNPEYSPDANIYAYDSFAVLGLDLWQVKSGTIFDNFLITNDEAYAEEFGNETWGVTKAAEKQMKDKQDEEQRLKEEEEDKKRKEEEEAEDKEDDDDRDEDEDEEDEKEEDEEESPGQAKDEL
Put plainly: Surface plasmon resonance (SPR) binding assay: binding to CRT and competitive inhibition of SE ligand 65-79*0401 binding. As to conditions: for Potency of competitive inhibition of SE ligand binding to CRT: result in words.
Description: Ficoll-Paque™, 4,5-Diaminofluorescein Diacetate (DAF-2 DA), 5-(and -6)-chloromethyl-2′,7′ dichlorodihydrofluorescein (CM-H2DCFDA), macrophage colony-stimulating factor (M-CSF), RANKL, denatured chicken collagen type II (CII), and complete Freund's Adjuvant (CFA) were purchased from previously listed sources. All other commercial reagents were purchased from Sigma (St Louis, Mo.). Linear peptides were synthesized and purified (>90%) as previously described (Ling et al., 2006 supra; Ling et al., 2007 Arthritis Res Ther 9: R5; Ling et al., 2007 The Journal of Immunology 179: 6359-6367; De Almeida et al., supra). Peptidomimetics were prepared by backbone cyclization (Kotake et al., 1999 J. Clin. Invest. 103: 1345-1352) of a 5mer peptide carrying the sequence DKCLA (SEQ ID NO: 1). Recombinant mouse CRT was purified as described (Ling and Holoshitz. 2007 The Journal of Immunology 179: 6359-6367).
as §1

The test system of assay [2] is SE-activated OC differentiation in human cells (PBMCs). As to the kind of experiment: In vitro OC differentiation assay, human PBMCs. It counts as cell-based. As to conditions: FIG. 2D. How it is done:
Isolation of human peripheral blood mononuclear cells (PBMCs) and culture of M1 fibroblasts were previously described (Holoshitz et al., 2012, J. Immunol.). DBA/1 mice, 6 to 10 weeks old, were purchased from the Jackson Laboratory (Bar Harbor, Me.). Mice were maintained and housed at the University of Michigan-Unit for Laboratory Animal Medicine facility, and all experiments were performed in accordance with protocols approved by University of Michigan Committee on Use and Care of Animals.
as §1

In assay [3] the test system is osteoclastogenesis in mouse bone marrow cell cultures. Put plainly: In vitro OC differentiation assay, mouse bone marrow cell cultures. In kind it is cell-based. As to conditions: FIG. 2E; for Inhibition of basal osteoclastogenesis: mouse bone marrow cell cultures; for Inhibition of SE-activated OC differentiation: mouse cells. How it is done:
as §1

For another assay, the system named is osteoclastogenesis. Put plainly: In vitro osteoclastogenesis / OC differentiation, cells not given. It counts as cell-based. As to the method: as §1
For assay [4], the system named is CIA. Put plainly: Collagen-induced arthritis (CIA) in DBA/1 mice. It counts as in vivo, mouse. As to the method:
DBA/1 mice (7-10 week old) were immunization as described (Holoshitz, 2012, J. Immunol.) with chicken CII in CFA. In brief, 50 μl of an emulsion containing 100 μg of CII in 25 μl of 0.05 M acetic acid and 25 μl of CFA was injected intradermally at the base of the tail. Mice were injected once per week intraperitoneally with either 1 or 10 pg (HS4-4)c Trp at in 50 μl of PBS. Arthritis severity was determined as previously described (Holoshitz, 2012, J. Immunol.), using a visual scoring system on a 4-point scale for each paw: 0=no arthritis, 1=swelling and redness confined to digits, 2=minor swelling and redness spreading from the digits to the distal paw, and 3=major swelling and redness extending proximally from the paw.
Limbs were dissected and decalcified in 10% EDTA for 14 days at 4° C. After decalcification, the specimens were processed for paraffin embedding and serial sectioned. The histological sections were deparaffinized, rehydrated and stained with hematoxylin and eosin (H&E), or for tartrate-resistant acid phosphatase (TRAP) activity using a commercial kit (Kamiya Biomedical Company, Seattle, Wash.). To determine OC abundance, TRAP-positive multinucleated cells were counted. Data represent mean±SEM of the total number of OCs in front and rear paws+knees. Bone damage was evaluated by radiography and micro-computed tomography (micro-CT) as previously described (Holoshitz, 2012, J. Immunol.).

For assay [5], the system named is CIA. As to conditions: in vivo; cited from earlier work.
In the next assay the test system is rodent cells. As to the kind of experiment: Literature: in vitro inhibition in rodent cells (Fridman et al.). It counts as cell-based.
Assay [6] has as its target T2, recombinant mouse CRT (calreticulin) (mouse, UniProt P14211 18-416, limits assumed).
T2 construct: also called recombinant CRT
T2 sequence (looked up): T1 sequence (P14211 18-416)
As to the kind of experiment: SPR, peptide as analyte, recombinant CRT immobilized. A general note: SPR reads the build-up and loss of mass on a sensor chip optically.

Starred links: 1 amine or outer side, 2 acyl side, 3 side chain; linkers in the order of their positions; H or OH if unused. Positions of bridges follow the written chain, without caps; N, C: chain ends. Non-standard residues stand in square brackets, D forms with d. Residues, ends and D or L forms follow the SMILES beside them. No end group written: not given here. CO = O=C([*:1])[*:2]; Nlys = NCCCCNCC(=O)O

Consider “HS(4-6)c Trp: backbone cyclic DKCLA (cDKCLA) peptidomimetic; cyclization linker m is 4 and n is 6 (bridge (positions not given here); not fully specified (bridges); also: backbone cyclized, linker m=4, n=6, 'Trp' in name unexplained)”, for which the midpoint of inhibition in assay [1], the IC50, lay at 560 nM.
Same read-out and setting: the result for “HS(6-2)c Trp: backbone cyclic DKCLA (cDKCLA) peptidomimetic; cyclization linker m is 6 and n is 2 (bridge (positions not given here); not fully specified (bridges); also: backbone cyclized, linker m=6, n=2, 'Trp' in name unexplained)” reads 770 nM.
On to `C[C@H](NC(=O)CN1CCCCNC(=O)NCCCCN(C(=O)[C@@H](N)Cc2c[nH]c3ccccc23)CC(=O)N[C@@H](CC(=O)O)C(=O)N[C@@H](CCCCN)C(=O)N[C@@H](CS)C1=O)C(N)=O` [HS(4-4)c Trp] (H-W[Nlys]DKC[Nlys]A-NH2; linker 2-6 via CO), for which, in [1], the IC50 amounted to 0.0016 nM and the “SEAL potency relative to the linear DKCLA peptide” value is on record as 1,000,000 times. Also, the “Concentrations blocking the SE signaling effects” value in assay [1] (result in words) is listed as “low-pM”. Further, the “Potency of competitive inhibition of SE ligand binding to CRT” value on recombinant CRT is listed as “low-pM”. For the same molecule, the “Inhibition of SE-activated OC differentiation” value in assay [2] is listed as “sub-pM”. In addition, in assay [3], the “Inhibition of basal osteoclastogenesis” value was “sub-pM” and the “Inhibition of SE-activated OC differentiation” value is given as “sub-pM”. In addition, the “Concentrations with inhibitory effect on OC differentiation” value in the assay on osteoclastogenesis (result in words) is given as “sub-to-low-pM”. In the assay with CIA [4] (mouse, in vivo), the “Dose range achieving disease amelioration effects” value is given as “ng/kg-range” and the “In vivo potency relative to INCB028050, SB1518, CEP-33779” value is recorded as 1,000,000 fold. Further, in the assay on CIA [4] (weekly ip), the Arthritis incidence entry is on record as “lower incidence”; the Arthritis severity entry is on record as “significantly milder”; the “Bone destruction, micro-CT imaging of joints” value is on record as “lesser extent of bone destruction”; the “OC abundance, synovial tissue histology (TRAP)” value is given as “lower OC abundance”. The Arthritis onset entry in the assay on CIA [4] (weekly ip, low-picogram doses) is given as “delayed onset”.
Consider “HS(3-3)c Trp: backbone cyclic DKCLA (cDKCLA) peptidomimetic; cyclization linker m is 3 and n is 3 (bridge (positions not given here); not fully specified (bridges); also: backbone cyclized, linker m=3, n=3, 'Trp' in name unexplained)”, for which the IC50 in assay [1] came out at 0.0018 nM. The “Inhibition of SE-activated OC differentiation” value in assay [2] and in assay [3] was “sub-pM” each time. The “Inhibition of basal osteoclastogenesis” value in assay [3] is listed as “sub-pM”.
Molecule “HS(6-4)c Trp: backbone cyclic DKCLA (cDKCLA) peptidomimetic; cyclization linker m is 6 and n is 4 (bridge (positions not given here); not fully specified (bridges); also: backbone cyclized, linker m=6, n=4, 'Trp' in name unexplained)” had an IC50 in assay [1] of 6.3 nM.
In the case of `CN1CCN(c2cccc(Nc3nc4c(-c5ccc(S(C)(=O)=O)cc5)cccn4n3)c2)CC1` [CEP-33779], in the assay on CIA [5], the “Dose range with therapeutic efficacy in CIA” value (shortened to “Dose range … in CIA”) was “mg/kg-range”.
On to DKCLA [Linear DKCLA], for which the IC50 in assay [1] came out at 35000 nM. In [1] (result in words), the “Block of NO induction by the SE ligand” value is recorded as “completely blocked”. Also, the “Binding to CRT” value on recombinant CRT (peptide in the analyte, CRT immobilized on the biosensor chip) is “bound to CRT”. Also, the “Potency of competitive inhibition of SE ligand binding to CRT” value on recombinant CRT was “low-μM-range”.
Take “HS(3-4)c Trp (DKCLA; bridge (positions not given here); not fully specified (bridges); also: backbone cyclized, linker m=3, n=4, 'Trp' in name unexplained)”: the IC50 in assay [1] was determined as 4300 nM. Moreover, the Inhibition of osteoclastogenesis result with osteoclastogenesis (FIG. 2F) is listed as “does not inhibit”. Besides, in the assay with CIA [4] (weekly ip), the Arthritis incidence result is “does not inhibit” and the Arthritis severity entry is “does not inhibit”.
Take `C1=C/COCc2cc(ccc2OCCN2CCCC2)Nc2nccc(n2)-c2cccc(c2)COC/1` [SB1518]: in the assay with CIA [5], the “Dose range … in CIA” value is on record as “mg/kg-range”.
For `CCS(=O)(=O)N1CC(CC#N)(n2cc(-c3ncnc4[nH]ccc34)cn2)C1` [INCB028050], in the assay with rodent cells, the “Potency lower than compound HS(4-4)c Trp” value was approximately 1000 fold. Besides, the “Dose range … in CIA” value with CIA [5] is “mg/kg-range”.

B1: linear DKCLA (SEQ ID NO: 1) peptide (peptide)
peptide: DKCLA
notes: Synthetic linear 5mer; analyte in SPR
Turning to B1, in assay [6], the binding result is “binds”.

By IC50 is commonly meant the midpoint of a concentration-inhibition curve. The low end stands for higher potency, the high end for lower potency.

The values above are taken from patent US9725484B2, “Methods and compositions for the treatment of bone remodeling disorders” (THE REGENTS OF THE UNIVERSITY OF MICHIGAN, priority 2013, dated 2017).
